Results as given in a melting point compilation (Tetko et al.; mined from patent text by program, amines drawn as free bases though some values may be those of a salt).

melting point [°C] | Structure (SMILES)
200 to 202 | Cc1cc(C)c(Nc2nc(C)ncc2S(=O)(=O)c2ccc(NCc3ccccc3)cc2)c(C)c1
100 to 102 | CCOC(=O)C(=O)CC(=O)c1c(-c2ccccc2)cc2ccccn12
122 to 124 | COC(=O)c1ccc(OC)c2c1OCO2
88 | COc1ccc(C2CCCN(C(=O)C(F)(F)F)C2)cc1N (centres undefined)
242 to 245 | CC(c1oc2ccccc2c(=O)c1-c1cccc(F)c1)n1nc(-c2cc3ccccc3s2)c2c(N)ncnc21 (centres undefined)
105 to 108 | CCOc1cc2ncc(C#N)c(Nc3ccc(F)cc3C)c2cc1OCC
73 | N#Cc1cccc2c1C(O)CC2 (centres undefined)
101 to 102 | CCOc1cc(OCCCCc2cn(-c3ccc(C(F)(F)F)cn3)nc2OCC)ccc1CCC(=O)O
282 to 284 | O=[N+]([O-])c1cccc(Nc2nccc(-c3ccncc3)n2)c1
73 to 74 | COc1cccc2c1C(C)C(=O)N2C (centres undefined)
202 to 203 | O=C1NC(=O)C(Cc2ccc(OCCNc3nc4ccccc4o3)cc2)S1 (centres undefined)
125 to 126 | CC(C)(C)OC(=O)N1CCC(c2c(F)cc(N3C[C@H](COS(C)(=O)=O)OC3=O)cc2F)CC1
193 to 194 | CN(C)CCNc1ccnc2cc3c(cc12)OCO3
139 to 140 | Cc1oc(-c2ccccc2)nc1COc1ccc(Cn2cc(CCC(=O)O)c(-c3ccc(F)cc3)n2)cc1
224 | COC(=O)Nc1nc2cc(C3(c4ccccc4)OCC(C)(C)CO3)ccc2[nH]1
94 to 95 | CC(S)C(=O)NCc1noc(C(C)c2ccc(-c3ccccc3)c(F)c2)n1 (centres undefined)
39 | Cc1cc(C(C)(C)C)cc(C)c1Cl
103 to 105 | CC(=O)Oc1cc(O)c(C=O)c(OC(C)=O)c1
154 to 155 | COc1ccccc1NC(=O)c1ccccc1SSc1ccccc1C(=O)Nc1ccccc1OC
136 to 138 | CCCn1nc(C)c([N+](=O)[O-])c1C(N)=O
122 to 124 | CC(C)[C@@H](NC(=O)OC(C)(C)C)[C@H]1CCn2c(cc3ccccc32)C1
105 to 108 | COc1cc2sc(CC(C)(Oc3ccc(C(C)C)cc3)C(=O)O)cc2c(Cl)c1OC (centres undefined)
208 to 210 | Cc1cc(C#N)cc(C)c1Oc1cc(Cl)nc(Cl)n1
196 to 198 | C#CCn1c(-c2ccccc2)nc(CC)c(CC(N)=O)c1=O

melting point [°C] | Structure (SMILES)
81 | CC(C)OC(=O)C(C)Oc1ccc(COc2ccc(Cl)cc2)cc1 (centres undefined)
108 to 110 | Cc1cc(C)c(C2=C(OC(=O)C(C)(C)C)CC(CC3CCOC3)CC2=O)c(C)c1 (centres undefined)
206 to 209 | Cc1cc2c(cc1C)N(C)C(=O)c1cccnc1N2
153 | Nc1nc(NC2CCCCC2)nc(NC2CCCCC2)n1
198 to 200 | COC(=O)NCCSc1cccc2nccn12
88 to 90 | CNC(=S)NS(=O)(=O)C(F)(F)F
48 to 50 | O=Cc1cccc(-c2cccs2)n1
234 to 235 | Cn1c(C(=O)N[C@H]2CCCC[C@H]2C(=O)N[C@@H](CCC(N)=O)C(N)=O)cc2ccccc21
83 to 84 | CC1(C)CC(=O)OC(C(Cl)(Cl)Cl)C1Cl (centres undefined)
114 to 116 | COc1ccc([C@@H]2CC=CC[C@H]2[N+](=O)[O-])cc1OC (racemic)
148 to 149 | O=S(=O)(NCC(O)(c1ccccc1)c1ccc(OCc2ccccc2)cc1)c1ccccc1 (centres undefined)
158 to 160 | CN1C(=O)C(C(=O)Nc2ccc(F)cc2)Sc2ccccc21 (centres undefined)
172 | CCOC(=O)C(=CC=C(O)C(=O)O)Sc1ccccc1
37 to 39 | C[Si](C)(C)CCOC(=O)c1cccc2nnsc12
73 to 74.5 | Cn1cc(Cl)c2cccc(C(=O)c3ccccc3)c21
154 to 155 | CCCCCCN(Cc1cccnc1)C(Nc1ccc(OC)cc1OC)=C1C(=O)OC(C)(C)OC1=O
216 to 217 | CC(Cl)(Cl)C(NC(=O)c1ccc(Cl)cc1)NC(=NC#N)Nc1ccccc1F (centres undefined)
163 to 166 | N#Cc1ccc(OCCCCCOc2ccc(-c3cc4cc(C#N)ccc4o3)cc2)cc1
150 to 151 | CCC1(CC)OC(=O)N(c2cccc(Cl)c2)c2ccccc21
189 | Cc1cc(-c2ncn3c(C(F)(F)F)cc(-c4ccc(C(F)(F)F)c(OCC(F)(F)F)c4)nc23)ccn1
179 to 180 | N#Cc1cc(-c2nc3cncnc3s2)ccc1Oc1ccc(Cl)cc1
203 to 205 | CCc1nc2cccc(C(=O)OC)c2n1Cc1ccc(-c2ccccc2-c2nc(=O)s[nH]2)cc1
> 320 | NC(=O)N[C@H]1CC[C@H](NC(N)=O)CC1
128 | O=C1c2ccccc2C(=O)N1CCCCc1cc(-c2ccccn2)nc(-c2ccccn2)c1

melting point [°C] | Structure (SMILES)
79 to 82 | COC(=O)/C=C/C(=O)O[C@@H](C)C(=O)N1CCOCC1
167 to 169 | CC(Cc1cccnc1)(NC(=O)OC1C2CC3CC(C2)CC1C3)C(=O)NCCc1ccccc1 (centres undefined)
163 to 165 | COc1cccc(OC)c1-c1ccccc1P(C1CCCCC1)C1CCCCC1
185 to 188 | O=C(Nc1ccc(-n2nc(C(F)(F)F)cc2C(F)(F)F)cc1)c1c(F)cc(Cl)cc1Cl
210 to 214 | NC(=O)c1cccc(C2(O)C3CCC2CN(Cc2ccccc2)C3)c1 (centres undefined)
166 | CC1(C)COc2cc(Cl)c(Cl)cc2C(O)(c2cccnc2)C1 (centres undefined)
183 to 184 | NC(=O)Cn1c(Cl)ccc1Cl
114 to 116 | COc1ccc(-c2nc(C(F)F)oc2-c2ccc(OCCO)cc2)cc1
150 to 154 | NCC1Cc2cccc(-c3cccc(Cl)c3)c2O1 (centres undefined)
180 to 182 | O=C(c1cc2ccc(O)cc2[nH]1)N1CCC(Cc2ccc(F)cc2)CC1
67 to 70 | COc1ccc(CCN2CCC(C(O)(c3ccccc3)c3nc4ccccc4s3)CC2)cc1 (centres undefined)
39 to 41 | OC[C@@H](COc1ccccc1)OC1CCCCO1 (some centres undefined)
131 to 133 | CC1=C(C(=O)OC(C)C)[C@@H](c2cccc(Cl)c2)NC(=O)N1C(N)=O
150 | COc1ccc(-c2cn(-c3cccc(OCCn4ccnc4)c3)c3ncnc(N)c23)cc1OCc1ccccc1
192 to 194 | O=c1nc(-c2cccc(SCCCc3ccccc3)n2)sc2ccccc12
155 to 156 | CCOc1nn(-c2ccc(C(F)(F)F)cn2)cc1CCOc1cc(CCC(=O)O)n(-c2ccccc2)n1
140 to 143 | CC1(C)C2CCC1(C)C(C(=O)OC(CSc1ccccc1)(C(=O)Nc1ccc(C#N)c(C(F)(F)F)c1)C(F)(F)F)C2 (centres undefined)
158 to 163 | CC1(C)OC(=O)c2c(cccc2-c2ccccc2)O1
290 to 292 | O=c1c2cc(O)ccc2oc2c([N+](=O)[O-])ccc(Cl)c12
142 to 143 | COc1ccc(/C=N/Nc2ccccn2)cc1OC1CCCC1
144 to 146 | CCN1CC2=C3C(=NN(c4ccc(C(C)C)cc4Br)C(=O)N3CC2)C(C)=N1
133 to 134 | Cc1cc2cc(C(=O)OCc3ccccc3)n(CC(=O)OC(C)(C)C)c2cc1C
214 to 215 | O=C(CN1C(=O)c2ccccc2C1=O)NCc1nncn1-c1ccc(Cl)cc1C(=O)c1ccccc1
222 to 223 | O=C1c2c(O)cccc2C(O)(c2cccc(C(F)(F)F)c2)c2cccc(O)c21

melting point [°C] | Structure (SMILES)
86 to 89 | CC(C)(C)OC(=O)N1CCC[C@H]1COc1cnc(Cl)c(-c2ccc(Cl)cc2)c1
60 to 64 | c1ccc(CNc2nccc3[nH]cnc23)cc1
248 to 250 | COc1ccc2c(c1)c(-c1[nH]c3ncccc3c1F)cn2C
101 to 103 | CC(=O)NC(C)c1ccc(CN2CCN(c3ccc(F)cc3)CC2)cc1 (centres undefined)
53 to 54 | CCc1ccc(CCOc2ccc([N+](=O)[O-])cc2)nc1
75 to 76 | CCc1ncnc(N[C@H]2CC[C@@H](C(C)(C)O)CC2)c1Cl
77 to 78 | COc1ccc2ccnc(Cl)c2c1
210 | CCCCc1nc(CO)c(S(=O)(=O)CC)n1Cc1ccc(-c2ccccc2C(=O)O)cc1
177 to 178 | COc1cccc([C@H]2O[C@H](CC(=O)NCc3cccc(CCC(=O)O)c3)C(=O)N(CC(C)(C)CO)c3ccc(Cl)cc32)c1OC
183 to 184 | COc1cc(OCCCN2CCc3cc(OC)c(OC)cc3C2)ccc1NC(=O)c1cccc2c(=O)c3cccc(C)c3[nH]c12
102 to 104 | CC(C)OC(=O)c1ccc2c(c1)ncn2-c1cccc(Br)c1
120 to 123 | CCOC(=O)c1cnc2c(NC(=O)c3c(Cl)cccc3Cl)cccc2c1CSc1ncc[nH]1
146 to 150 | O=C1CC(c2ccccc2)NC(=O)C1C(=O)c1ccccc1[N+](=O)[O-] (centres undefined)
109 to 112 | Cc1ccc(OC2CCN(C(=O)C(=O)O)CC2)cc1
96 to 99 | COc1ccccc1CN1N=C(c2ccc(OC)c(OC)c2)[C@@H]2CCCC[C@@H]2C1=O (relative stereo)
124 to 126 | CCCN(Cc1ccc(-c2ccccc2-c2nc(=O)o[nH]2)cc1)c1nn(C)cc1C(=O)O
179 to 182 | Cn1c(S)nc(-c2ccccc2)c1-c1ccccc1
228 to 230 | O=C(c1cc(-c2cccc(Cl)c2)c(=O)n2c1-c1c(Cl)cccc1C2)N1CCC[C@@H]1CO
303 to 305 | Cc1c2c(c(-c3ccc(C(F)(F)F)cc3)c3c4c(ccc13)OCO4)CNC2=O
196 to 198 | CCOc1cc(-c2cccc(C(=O)NCc3cccc4c3C(=O)N(C3CCC(=O)NC3=O)C4=O)n2)ccc1OC (centres undefined)
75.2 to 75.8 | C=CCCOc1ccc(CCCO)c(Oc2ncc(C(F)(F)F)cc2Cl)c1
140 to 145 | CC(C)(C)CNc1cc(N2CCNCC2)nc(N2CCCC2)n1

Structure (SMILES) | melting point [°C]
CC(C)n1nc(-c2c(-c3ccccc3)nn3ccc(OCCN4CC4)cc23)ccc1=O | 159 to 160
C=CCN1CC2OC(c3ccccc3)(C1)c1ccccc12 (centres undefined) | 127 to 128
CC1(C)CCC(C)(C)c2c(O)ccc(O)c21 | 114
N=C(NCc1cnc(Cl)s1)N[N+](=O)[O-] | 160 to 162
COc1ccc(-n2cc(C3(O)CN4CCC3CC4)nn2)cc1 (centres undefined) | 174
